What was measured:
[1] = system: human gingival fibroblasts (HGFs); test: MTT cytocompatibility screening on HGFs, 24 h; type: cell-based; conditions: for HGFs metabolic activity / cell viability (MTT): 10 µM, vs control (DMSO) and RSV; for HGFs cell viability (MTT): vs control and RSV
eNOS mRNA in HUVECs = test: RT-qPCR of eNOS in HUVECs; type: cell-based, human; conditions: RSV 10 µM, 48 and 72 h, time-dependent manner
Experimental: Total RNA was isolated using Trifast reagent (EuroClone) according to the manufacturer instructions from 3 × 10^5 cells/well treated with increasing concentrations of 1d and 1h for 48 h and 72 h. Complementary DNA (cDNA) was obtained using GoTaq® 2 Step RT-qPCR Kit (Promega, Madison, WI, USA) in accordance with the manufacturer’s instructions. RT-qPCR was carried out using SYBR Green (Promega) on the Quant Studio 7 Pro Real-Time PCR System (ThermoFisher, Waltham, MA, USA). The results were normalized to glyceraldehyde 3-phoshate dehydrogenase (GAPDH) for HUVECs and HGFs and to β-actin (βACT) for HOBs using the 2^−ΔΔCt method.

HGFs = test: Toluidine blue staining, morphology and confluence of HGFs; type: cell-based, human; conditions: 72 h; 1d and 1h 5 µM, RSV 10 µM
Experimental: The influence of 1d and 1h was evaluated on cells density and morphology by toluidine-blue staining. A total of 2 × 10^4 cells/well were cultured in 24-well plates and were incubated at 37 °C and 5% CO2 with tested compounds at 5 µM. After 48 and 72 h, adherent cells were fixed with 70% cold ethanol and stained with 1% toluidine blue and 1% borax (Sigma Aldrich, St. Louis, MO, USA). Cells were then observed by an inverted microscope connected with a camera at 40×, 100×, and 200× magnifications (Leica, Wild Heer-brugg, Wetzlar, Germany).

Row | SMILES | HGFs metabolic activity / cell viability (MTT) [1] | HGFs cell viability (MTT) ([1]; 50 µM) | HGFs cell viability (MTT) ([1]; 20 µM) | eNOS mRNA expression (eNOS mRNA in HUVECs) | HGFs morphology (HGFs)
1 | O=[N+]([O-])c1cccc(S(=O)(=O)Nc2ccc(/C=C/c3ccccc3)cc2)c1 [1b] | significantly decreased the HGFs metabolic activity | statistically reduce HGF viability | – | – | –
2 | CS(=O)(=O)Nc1ccc(/C=C/c2ccccc2)cc1 [1g] | significantly decreased the HGFs metabolic activity | statistically reduce HGF viability | statistically significant reduction in cell viability | – | –
3 | Oc1ccc(/C=C/c2cc(O)cc(O)c2)cc1 [RSV, trans-3,5,4′-trihydroxystilbene, reference compound] | – | – | – | induced eNOS mRNA expression | appeared as irregular triangles, polygons, and other shapes
4 | N#Cc1ccc(S(=O)(=O)Nc2ccc(/C=C/c3ccccc3)cc2)cc1 [1e] | significantly decreased the HGFs metabolic activity | statistically reduce HGF viability | statistically significant reduction in cell viability | – | –
5 | O=S(=O)(Nc1ccc(/C=C/c2ccccc2)cc1)c1ccccc1 [1a] | did not show any significant difference | no statistically significant differences | slight increase in HGF viability | – | –
6 | O=S(=O)(Cc1ccccc1)Nc1ccc(/C=C/c2ccccc2)cc1 [1i] | did not show any significant difference | statistically reduce HGF viability | statistically significant reduction in cell viability | – | –
7 | COc1cc(OC)cc(S(=O)(=O)Nc2ccc(/C=C/c3ccccc3)cc2)c1 [1f] | significantly decreased the HGFs metabolic activity | statistically reduce HGF viability | – | – | –
8 | Cc1ccc(S(=O)(=O)Nc2ccc(/C=C/c3ccccc3)cc2)cc1[N+](=O)[O-] [1c] | did not show any significant difference | statistically reduce HGF viability | – | – | –

Reference: article PMC9963438, “Emerging Effects of Resveratrol Derivatives in Cells Involved in Oral Wound Healing: A Preliminary Study” (International Journal of Molecular Sciences, 2023)
